Results reported in article PMC7302004, “Tandem gene duplications drive divergent evolution of caffeine and crocin biosynthetic pathways in plants” (BMC Biology, 2020).

How the values were obtained:
[1] = molecular target: T1, GjALDH2C3 (Gardenia jasminoides, UniProt A0A288W8F8); experiment: in vitro oxidation, UPLC-DAD and LC-MS; assay type: biochemical; conditions: products crocetin and crocetin semialdehyde
T1 sequence (A0A288W8F8 1-503): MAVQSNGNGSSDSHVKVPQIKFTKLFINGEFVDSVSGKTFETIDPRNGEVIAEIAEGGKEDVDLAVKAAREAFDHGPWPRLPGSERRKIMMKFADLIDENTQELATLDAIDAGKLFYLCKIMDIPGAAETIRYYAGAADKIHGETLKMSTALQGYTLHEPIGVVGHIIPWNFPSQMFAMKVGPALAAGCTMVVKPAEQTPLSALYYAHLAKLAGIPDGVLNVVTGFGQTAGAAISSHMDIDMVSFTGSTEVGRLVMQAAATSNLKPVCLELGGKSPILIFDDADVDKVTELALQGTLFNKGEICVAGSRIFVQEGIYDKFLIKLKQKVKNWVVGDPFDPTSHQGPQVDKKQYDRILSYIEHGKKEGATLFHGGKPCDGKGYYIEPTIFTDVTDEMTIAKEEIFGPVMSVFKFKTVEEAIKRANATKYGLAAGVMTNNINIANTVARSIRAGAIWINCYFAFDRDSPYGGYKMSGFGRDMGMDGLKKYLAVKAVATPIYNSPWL

[2] = molecular target: T2, GjUGT74F8 (Gardenia jasminoides, UniProt Z9ZI51R9R0); experiment: in vitro glucosylation, UPLC-DAD and LC-MS; assay type: biochemical; conditions: products crocin III and crocin V
T2 sequence (Z9ZI51R9R0 1-457): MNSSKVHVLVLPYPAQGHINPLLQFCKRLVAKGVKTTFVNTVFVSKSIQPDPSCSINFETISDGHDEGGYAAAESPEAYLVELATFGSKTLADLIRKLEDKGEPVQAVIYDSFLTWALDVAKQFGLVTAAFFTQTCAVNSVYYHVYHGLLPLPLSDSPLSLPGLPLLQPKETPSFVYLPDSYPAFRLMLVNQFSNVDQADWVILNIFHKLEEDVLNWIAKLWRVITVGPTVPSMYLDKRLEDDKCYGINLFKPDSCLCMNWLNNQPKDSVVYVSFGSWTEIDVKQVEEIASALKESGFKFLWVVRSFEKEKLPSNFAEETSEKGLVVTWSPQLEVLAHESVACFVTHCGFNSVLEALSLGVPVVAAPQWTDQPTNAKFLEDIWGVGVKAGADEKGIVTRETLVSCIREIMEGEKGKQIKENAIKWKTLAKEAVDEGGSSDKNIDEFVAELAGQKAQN

[3] = molecular target: T3, GjUGT75L6 (Gardenia jasminoides, UniProt F8WKW0); conditions: purification not stated in main text
T3 construct: gene UGT75L6
T3 sequence (F8WKW0 whole entry): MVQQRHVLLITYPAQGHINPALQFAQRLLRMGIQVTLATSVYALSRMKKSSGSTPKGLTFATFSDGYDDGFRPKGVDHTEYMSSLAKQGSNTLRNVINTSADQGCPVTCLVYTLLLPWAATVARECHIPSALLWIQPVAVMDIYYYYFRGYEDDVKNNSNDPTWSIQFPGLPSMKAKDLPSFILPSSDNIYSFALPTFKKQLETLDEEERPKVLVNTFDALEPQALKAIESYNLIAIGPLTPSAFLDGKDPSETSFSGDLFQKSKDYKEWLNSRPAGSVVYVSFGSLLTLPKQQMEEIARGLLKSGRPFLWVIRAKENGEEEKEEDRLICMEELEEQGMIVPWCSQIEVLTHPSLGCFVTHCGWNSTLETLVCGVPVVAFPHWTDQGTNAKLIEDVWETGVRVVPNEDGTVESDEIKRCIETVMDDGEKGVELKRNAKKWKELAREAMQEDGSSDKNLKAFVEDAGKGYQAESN

[4] = molecular target: T2, GjUGT74F8; experiment: in vitro de-glucosylation, UPLC-DAD and LC-MS; assay type: biochemical; conditions: reversible; product crocin IV
[5] = molecular target: T4, GjUGT94E13 (Gardenia jasminoides, UniProt A0A288W8G7); experiment: in vitro glucosylation, UPLC-DAD and LC-MS; assay type: biochemical; conditions: product crocin I
T4 sequence (A0A288W8G7 1-446): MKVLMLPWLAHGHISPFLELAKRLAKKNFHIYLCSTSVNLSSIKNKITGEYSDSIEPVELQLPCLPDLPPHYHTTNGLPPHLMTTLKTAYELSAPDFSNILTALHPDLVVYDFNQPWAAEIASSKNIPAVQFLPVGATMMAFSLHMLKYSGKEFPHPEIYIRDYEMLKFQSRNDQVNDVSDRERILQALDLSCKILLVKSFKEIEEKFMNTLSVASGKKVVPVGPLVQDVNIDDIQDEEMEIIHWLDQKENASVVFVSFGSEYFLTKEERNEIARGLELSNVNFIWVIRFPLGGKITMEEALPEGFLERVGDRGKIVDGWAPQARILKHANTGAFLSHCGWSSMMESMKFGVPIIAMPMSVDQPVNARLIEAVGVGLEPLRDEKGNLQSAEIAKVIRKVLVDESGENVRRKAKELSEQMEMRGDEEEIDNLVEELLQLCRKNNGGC

[6] = molecular target: GjCCD4a (Gardenia jasminoides, UniProt A0A288W8F9); experiment: in bacterio carotenoid cleavage, UPLC-DAD and LC-MS; conditions: E. coli accumulating zeaxanthin; product crocetin dialdehyde
GjCCD4a, sequence (A0A288W8F9 entry or part of it): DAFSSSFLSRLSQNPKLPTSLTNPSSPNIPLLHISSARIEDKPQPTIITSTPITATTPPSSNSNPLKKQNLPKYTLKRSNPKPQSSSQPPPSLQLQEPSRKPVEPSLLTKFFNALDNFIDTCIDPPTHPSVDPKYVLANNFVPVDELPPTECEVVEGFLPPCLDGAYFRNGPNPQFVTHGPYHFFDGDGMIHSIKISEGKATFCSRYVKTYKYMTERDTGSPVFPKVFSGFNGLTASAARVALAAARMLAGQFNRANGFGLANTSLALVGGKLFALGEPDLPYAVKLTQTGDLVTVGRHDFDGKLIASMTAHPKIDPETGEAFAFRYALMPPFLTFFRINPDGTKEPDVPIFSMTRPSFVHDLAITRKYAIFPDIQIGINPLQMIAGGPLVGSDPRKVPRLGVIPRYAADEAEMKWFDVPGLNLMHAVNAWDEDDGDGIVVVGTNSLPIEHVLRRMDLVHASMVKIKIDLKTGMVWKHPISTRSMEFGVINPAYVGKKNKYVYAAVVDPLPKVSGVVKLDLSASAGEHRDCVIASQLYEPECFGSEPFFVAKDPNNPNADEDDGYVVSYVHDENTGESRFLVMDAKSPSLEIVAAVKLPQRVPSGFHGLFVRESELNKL

Compound: C\C(C=O)=C/C=C/C(C)=C/C=C/C=C(C)/C=C/C=C(\C)C=O [crocetin dialdehyde]
- in vitro oxidation, UPLC-DAD and LC-MS [1]: Incubation of crocetin dialdehyde with GjALDH2C3 yielded two new peaks

Compound: CC(/C=C/C=C(\C)C(=O)O)=C\C=C\C=C(C)\C=C\C=C(/C)C(=O)O [crocetin]
- in vitro glucosylation, UPLC-DAD and LC-MS [2]: Upon in vitro incubation of GjUGT74F8 with crocetin, two new peaks
- in vitro glucosylation, UPLC [3]: GjUGT75L6, and GjUGT94E13, were able to glycosylate crocetin and/or crocins

Compound: CC(/C=C/C=C(\C)C(=O)O[C@@H]1O[C@H](CO)[C@@H](O)[C@H](O)[C@H]1O)=C\C=C\C=C(C)\C=C\C=C(/C)C(=O)O[C@@H]1O[C@H](CO[C@@H]2O[C@H](CO)[C@@H](O)[C@H](O)[C@H]2O)[C@@H](O)[C@H](O)[C@H]1O [crocin II]
- in vitro de-glucosylation, UPLC-DAD and LC-MS [4]: reversible conversion of crocin II to crocin IV and vice versa was observed
- in vitro glucosylation, UPLC-DAD and LC-MS [5]: GjUGT94E13 could efficiently catalyze the glycosylation of crocins II and III to crocin I

Compound: CC1=C(/C=C/C(C)=C/C=C/C(C)=C/C=C/C=C(C)/C=C/C=C(C)/C=C/C2=C(C)C[C@@H](O)CC2(C)C)C(C)(C)C[C@H](O)C1 [zeaxanthin]
- in bacterio carotenoid cleavage, UPLC-DAD and LC-MS [6]: a new product with a retention time and characteristic fragment ions
